Read-outs that look alike come from different tables or passages of the source.
Key:
[1] = system: LRV1 (LgyLRV1 capsid levels); test: organism not typed; details: for LgyLRV1− population in washout, of total cell population / Parasites with LgyLRV1+ capsid levels in washout population: then drug-free media
[2] = system: L. guyanensis (LgyLRV1+); test: Drug-inhibition test: growth of LgyLRV1+ parasites; format: cell-based, Leishmania guyanensis
[3] = system: L. braziliensis strains bearing LRV1; test: Growth inhibition of L. braziliensis strains bearing LRV1; format: cell-based; details: Leishmania braziliensis
Method: (§1) For 2CMA, the EC50 was estimated to be ˜3 μM for LRV1 capsid inhibition, versus >100 μM for parasite growth (FIG. 11A), at least 30-fold selective. […] Several studies were carried out with L. braziliensis strains bearing LRV1 (12). The 2CMA EC50 for LbrLRV1 was similar to that seen with LgyLRV1 (˜3 μM); however, parasites were somewhat more susceptible to growth inhibition (EC50 50-100 μM). Because the available quantities of 7d2CMA were limiting and both compounds were similarly selective for L. guyanensis, we focused thereafter on 2CMA.
(§2) Most studies were performed using luciferase-expressing transfectants of L. guyanensis (MHOM/BR/78/M4147) described previously [LRV1^+ LgyM4147/SSU:IR2SAT-LUC(b)c3 and LRV^−LgyM4147/pX63HYG/SSU:IR2SAT-LUC(b)c4] (54); these lines are termed LgyLRV1^+ and LgyLRV1^−, respectively. Two strains of LRV1^+L. braziliensis were examined: LEM2780 (MHOM/BO/90/CS) and LEM3874 (MHOM/BO/99/IMT252 no. 3) (12). Parasites were grown in Schneider's media (Sigma Aldrich, St. Louis, Mo., USA) prepared according to the supplier's instructions with pH adjusted to 6.5 and supplemented with 0.76 mM hemin, 2 μg/mL biopterin, 50 U/mL penicillin, 50 μg/mL streptomycin, and 10% (vol/vol) heat-inactivated FBS. Cell concentrations were determined using a Coulter Counter ([…], Indianapolis, Ind., USA).

[4] = system: dsRNA LRV1 genome; test: Quantitative anti-dsRNA slot blots of LRV1 genome; format: cell-based, Leishmania RNA virus 1 in Leishmania guyanensis; details: LgyLRV1+
Method: RNA slot blot analysis was performed as described previously (36).

[5] = system: LbrLRV1; test: LRV1 inhibition in L. braziliensis strains bearing LRV1; format: cell-based, Leishmania RNA virus 1 in Leishmania braziliensis; details: Leishmania braziliensis
Method: as §1, §2

[6] = animal models; cited from earlier work
[7] = system: LRV1 (LgyLRV1 capsid levels); details: from Kuhlmann, 2017; cited from earlier work

## C[C@@]1(O)[C@H](O)[C@@H](CO)O[C@H]1n1cnc2c(N)ncnc21 [2′C-methyadenosine, 2′-C-methyladenosine]
[1]; 100 μM for four doublings
  LgyLRV1− population in washout, of total cell population: 50%
  Parasites with LgyLRV1+ capsid levels in washout population: 36%
[1]; 100 μM for three doublings
  LgyLRV1− population in washout, of total cell population: 31%
  Parasites with LgyLRV1+ capsid levels in washout population: 55%
[1]; 100 μM maintained for four cell doublings
  Fold less LRV1 capsid expression: 16 fold
[1]; 100 μM maintained for three cell doublings
  Fold less LRV1 capsid expression: 8 fold
[1]; 100 μM, capsid flow cytometry and qRT-PCR
  Loss of LRV1 capsid and RNA at every cell doubling: 50%
[1]; 48 h, read-out: EC50 for 2CMA inhibition of LRV1 in the presence of allopurinol
  EC50: ~3000 nM
[1]; 48 h, read-out: Percent control (LRV1 capsid)
  activity at 100 µM: 7%
[1]; EC50 growth vs EC50 LRV1 capsid
  Selectivity for LRV1 versus L. guyanensis growth inhibition: at least 30 fold
[1]; LgyLRV1+, tested at 100 μM, 2 days
  LRV1 capsid (geometric mean FU): 19 FU
[1]; read-out: EC50 for LRV1 capsid inhibition
  EC50: ~3000 nM
[1]; tested at 100 μM
  Reduction in LRV1 capsid levels: 12 fold
[2]; L. guyanensis at 100 μM, untreated 6.4 hours
  Population doubling time: 8.5 h
[2]; Leishmania guyanensis, 48 h, LgyLRV1+, tested at 100 μM, growth after 2 days, read-out: Percent control (density)
  activity at 100 µM: 72%
[2]; Leishmania guyanensis, L. guyanensis, relative cellular growth rate, titration, read-out: EC50 for parasite growth
  EC50: > 100000 nM
[2]; Leishmania guyanensis, tested at 100 μM, read-out: Inhibition of parasite density
  inhibition at 100 µM: 30%
[2]; LgyLRV1+, tested at 100 μM, growth after 2 days
  Density (cells/mL): 1.22E+7 cells/mL
[3]
  EC50: 50000 to 100000 nM
[4]
  EC50: ~1000 nM
[5]
  EC50: ~3000 nM
[6]
  Serum half-life: 18 min
[7]
  Concentration that eradicates / completely inhibits LRV1 replication: 10 µM

Source: US20190307783A1, “USE OF ANTIVIRALS TO INHIBIT PROTOZOAN VIRUSES” (priority 2016, published 2019)
